# Reference: the SangsterLogP compilation
row,SMILES,logP
1,Oc1ccc(-c2ccc(O)cc2Cl)cc1,3.37
2,Oc1ccc(-c2ccc(O)cc2)cc1,2.66
3,Oc1ccc(-c2cc(Cl)ccc2Cl)cc1,4.63
4,Oc1c(Cl)cc(-c2cc(Cl)c(O)c(Cl)c2)cc1Cl,5.14
5,Oc1ccc(-c2ccccc2)c(Cl)c1,4.04
6,Oc1ccc(-c2ccccc2)cc1,3.33
7,Oc1c(Cl)cc(-c2ccc(Cl)cc2)cc1Cl,5.22
8,Oc1ccc(-c2c(Cl)cc(Cl)cc2Cl)cc1,5.22
9,Oc1ccc(-c2c(Cl)cccc2Cl)cc1,4.63
10,Oc1ccc(-c2ccc(Cl)cc2)cc1,4.04
11,Oc1ccc(-c2cc(Cl)c(Cl)c(Cl)c2Cl)cc1,5.81
